From patent US10221177B2 (HYDRA BIOSCIENCES, INC., priority 2014, dated 2019)

What follows are compounds tested against human TRPA1 (Homo sapiens (Human), UniProt O75762) (assay: In vitro inhibition of human TRPA1, whole cell patch configuration). Details: current activation 10 μM AITC, tested concentrations 320 pM to 3.2 μM, read-out: hTRPA1 IC50.
Type: cell-based
Experimental: All currents were recorded in whole-cell configuration using EPC-9 and EPC-10 amplifiers and Patchmaster software (HEKA) or similar. […] The standard bath solution contained 150 mM NaCl, 10 mM HEPES, 10 mM glucose, 4.5 mM KCl, 1 mM EGTA, 3 mM MgCl2, with pH adjusted to 7.4 with NaOH. In some instances, 2 mM CaCl2 was added in place of EGTA and the concentration of MgCl2 was reduced to 1 mM.
Data were collected either by continuous recordings at −60 mV or by applying voltage ramps from a holding potential of −40 mV every 4 s. Continuous recordings were collected at 400 Hz and digitally filtered off-line at 10 Hz for presentation. Voltage ramps were applied from −100 mV or −80 mV to +100 mV or +80 mV over the course of 400 ms, and data were collected at 10 kHz and filtered at 2.9 kHz. Inward and outward currents were analyzed from the ramps at −80 and 80 mV, respectively. Liquid junction potential correction was not used.
Solutions were switched using a gravity-fed continuous focal perfusion system. To achieve rapid temperature changes, two temperature control, and perfusion systems were employed simultaneously. […] Temperatures were confirmed using a thermistor (Warner Instruments, TA-29), with temperatures at the recorded cell estimated to be within +/−2° C. of those reported.
The antagonist effects of compounds of Formula (I) against human TRPA1 (“hTRPA1”) in a whole cell patch configuration were evaluated using the in vitro assay described above.

Sequence of human TRPA1 (O75762 whole entry): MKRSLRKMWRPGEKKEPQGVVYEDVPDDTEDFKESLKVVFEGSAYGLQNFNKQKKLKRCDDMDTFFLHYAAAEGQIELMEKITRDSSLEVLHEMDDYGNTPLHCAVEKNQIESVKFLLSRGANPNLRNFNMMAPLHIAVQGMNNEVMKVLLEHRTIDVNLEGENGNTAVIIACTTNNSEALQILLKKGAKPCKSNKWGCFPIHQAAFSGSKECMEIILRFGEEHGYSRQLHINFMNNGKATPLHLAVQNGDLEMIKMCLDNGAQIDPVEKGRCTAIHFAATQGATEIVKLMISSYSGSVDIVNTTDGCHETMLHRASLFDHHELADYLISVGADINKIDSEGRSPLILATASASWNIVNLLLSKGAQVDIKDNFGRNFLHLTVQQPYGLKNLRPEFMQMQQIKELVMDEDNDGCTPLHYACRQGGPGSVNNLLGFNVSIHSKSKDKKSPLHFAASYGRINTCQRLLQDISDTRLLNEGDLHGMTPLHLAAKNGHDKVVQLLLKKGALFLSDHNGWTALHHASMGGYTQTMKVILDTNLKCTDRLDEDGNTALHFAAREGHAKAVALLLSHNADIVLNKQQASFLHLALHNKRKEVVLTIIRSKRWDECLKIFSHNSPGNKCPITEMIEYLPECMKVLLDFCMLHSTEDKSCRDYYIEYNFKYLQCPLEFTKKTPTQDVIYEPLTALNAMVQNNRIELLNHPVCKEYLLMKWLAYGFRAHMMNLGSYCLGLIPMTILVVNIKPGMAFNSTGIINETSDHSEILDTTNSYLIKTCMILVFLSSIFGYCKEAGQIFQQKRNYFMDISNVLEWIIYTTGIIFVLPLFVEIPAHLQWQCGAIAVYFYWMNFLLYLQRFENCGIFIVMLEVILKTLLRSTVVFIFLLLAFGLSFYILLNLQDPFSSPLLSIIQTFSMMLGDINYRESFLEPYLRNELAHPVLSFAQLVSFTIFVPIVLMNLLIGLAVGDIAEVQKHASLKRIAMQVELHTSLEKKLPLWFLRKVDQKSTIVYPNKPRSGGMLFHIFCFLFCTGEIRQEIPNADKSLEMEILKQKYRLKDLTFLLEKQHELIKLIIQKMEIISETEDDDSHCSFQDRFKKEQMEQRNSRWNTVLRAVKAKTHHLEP

| SMILES | IC50 [nM] |
| --- | --- |
| CC(=O)Cn1c(=O)c2c(ncn2[C@@H](C)C(=O)Nc2cncc(-c3cnc(C(F)(F)F)nc3)n2)n(C)c1=O [Compound 6, (S)-2-(3-methyl-2,6-dioxo-1-(2-oxopropyl)-2,3-dihydro-1H-purin-7(6H)-yl)-N-(6-(2-(trifluoromethyl)pyrimidin-5-yl)pyrazin-2-yl)propanamide] | 39 |
| Cc1noc(Cn2c(=O)c3c(ncn3[C@@H](C)C(=O)Nc3csc(-c4cnc(C(F)(F)F)c(C)c4)n3)n(C)c2=O)n1 [Compound 107, (S)-2-(3-methyl-1-((3-methyl-1,2,4-oxadiazol-5-yl)methyl)-2,6-dioxo-2,3-dihydro-1H-purin-7(6H)-yl)-N-(2-(5-methyl-6-(trifluoromethyl)pyridin-3-yl)thiazol-4-yl)propanamide] | 1 |
| CC(=O)Cn1c(=O)c2c(ncn2[C@@H](C)C(=O)Nc2csc(-c3cnc(C(F)(F)F)nc3)n2)n(C)c1=O [Compound 31, (S)-2-(3-methyl-2,6-dioxo-1-(2-oxopropyl)-2,3-dihydro-1H-purin-7(6H)-yl)-N-(2-(2-(trifluoromethyl)pyrimidin-5-yl)thiazol-4-yl)propanamide] | 16 |
| CCC(=O)Cn1c(=O)c2c(ncn2[C@@H](C)C(=O)Nc2cccc(-c3cnc(N4CC5C(C4)C5(F)F)nc3)n2)n(C)c1=O (stereo partly drawn) [Compound 26, (2S)—N-(6-(2-(6,6-difluoro-3-azabicyclo[3.1.0]hexan-3-yl)pyrimidin-5-yl)pyridin-2-yl)-2-(3-methyl-2,6-dioxo-1-(2-oxobutyl)-2,3-dihydro-1H-purin-7(6H)-yl)propanamide] | 1 |
| CCN(CC)c1ncc(-c2cccc(NC(=O)[C@H](C)n3cnc4c3c(=O)n(Cc3cc(C)on3)c(=O)n4C)n2)cn1 [Compound 27, (S)—N-(6-(2-(diethylamino)pyrimidin-5-yl)pyridin-2-yl)-2-(3-methyl-1-((5-methylisoxazol-3-yl)methyl)-2,6-dioxo-2,3-dihydro-1H-purin-7(6H)-yl)propanamide] | 2 |
| Cc1cc(Cn2c(=O)c3c(ncn3[C@@H](C)C(=O)Nc3csc(-c4cnc(C)c(F)c4)n3)n(C)c2=O)no1 [Compound 100, (S)—N-(2-(5-fluoro-6-methylpyridin-3-yl)thiazol-4-yl)-2-(3-methyl-1-((5-methylisoxazol-3-yl)methyl)-2,6-dioxo-2,3-dihydro-1H-purin-7(6H)-yl)propanamide] | 8 |
| CCC(=O)Cn1c(=O)c2c(ncn2CC(=O)Nc2cncc(-c3cnc(C)c(C(F)(F)F)c3)n2)n(C)c1=O [Compound 243, 2-(3-methyl-2,6-dioxo-1-(2-oxobutyl)-2,3-dihydro-1H-purin-7(6H)-yl)-N-(6-(6-methyl-5-(trifluoromethyl)pyridin-3-yl)pyrazin-2-yl)acetamide] | 6 |
| Cc1cc(Cn2c(=O)c3c(ncn3[C@@H](C)C(=O)Nc3cccc(-c4cnc(C)c(C(F)(F)F)c4)n3)n(C)c2=O)no1 [Compound 126, (S)-2-(3-methyl-1-((5-methylisoxazol-3-yl)methyl)-2,6-dioxo-2,3-dihydro-1H-purin-7(6H)-yl)-N-(6′-methyl-5′-(trifluoromethyl)-[2,3′-bipyridin]-6-yl)propanamide] | 1 |
| Cc1cc(Cn2c(=O)c3c(ncn3CC(=O)Nc3csc(-c4cnc(C(F)(F)F)c(C)c4)n3)n(C)c2=O)no1 [Compound 217, 2-(3-methyl-1-((5-methylisoxazol-3-yl)methyl)-2,6-dioxo-2,3-dihydro-1H-purin-7(6H)-yl)-N-(2-(5-methyl-6-(trifluoromethyl)pyridin-3-yl)thiazol-4-yl)acetamide] | 3 |
| CC(=O)Cn1c(=O)c2c(ncn2CC(=O)Nc2cccc(-c3cnc(C)c(C(F)(F)F)c3)n2)n(C)c1=O [Compound 234, 2-(3-methyl-2,6-dioxo-1-(2-oxopropyl)2,3-dihydro-1H-purin-7(6H)-yl)-N-(6′-methyl-5′-(trifluoromethyl)-[2,3′-bipyridin]-6-yl)acetamide] | 4 |

Further compounds by falling IC50, results first:

| IC50 [nM] | SMILES |
| --- | --- |
| 404 | Cc1cc(Cn2c(=O)c3c(ncn3CC(=O)Nc3ccc4ccccc4n3)n(C)c2=O)no1 [Compound 199, 2-(3-Methyl-1-((5-methylisoxazol-3-yl)methyl)-2,6-dioxo-2,3-dihydro-1H-purin-7(6H)-yl)-N-(quinolin-2-yl)acetamide] |
| 258 | CNC(=O)Cn1c(=O)c2c(ncn2[C@@H](C)C(=O)Nc2cccc(-c3cnc(C(F)(F)F)nc3)n2)n(C)c1=O [Compound 87, (S)-2-(3-methyl-1-(2-(methylamino)-2-oxoethyl)-2,6-dioxo-2,3-dihydro-1H-purin-7(6H)-yl)-N-(6-(2-(trifluoromethyl)pyrimidin-5-yl)pyridin-2-yl)propanamide] |
| 92 | Cc1cc(Cn2c(=O)c3c(ncn3CC(=O)Nc3cccc(N4CCN(CC(F)(F)F)CC4)n3)n(C)c2=O)no1 [Compound 214, 2-(3-methyl-1-((5-methylisoxazol-3-yl)methyl)-2,6-dioxo-2,3-dihydro-1H-purin-7(6H)-yl)-N-(6-(4-(2,2,2-trifluoroethyl)piperazin-1-yl)pyridin-2-yl)acetamide] |
| 23 | CCCC(=O)Cn1c(=O)c2c(ncn2[C@@H](C)C(=O)Nc2cccc(-c3cnc(C(F)(F)F)nc3)n2)n(C)c1=O [Compound 52, (S)-2-(3-methyl-2,6-dioxo-1-(2-oxopentyl)-2,3-dihydro-1H-purin-7(6H)-yl)-N-(6-(2-(trifluoromethyl)pyrimidin-5-yl)pyridin-2-yl)propanamide] |
| 9 | Cc1noc(Cn2c(=O)c3c(ncn3[C@@H](C)C(=O)Nc3cncc(-c4cnc(C)c(C(F)(F)F)c4)n3)n(C)c2=O)n1 [Compound 132, (S)-2-(3-methyl-1-((3-methyl-1,2,4-oxadiazol-5-yl)methyl)-2,6-dioxo-2,3-dihydro-1H-purin-7(6H)-yl)-N-(6-(6-methyl-5-(trifluoromethyl)pyridin-3-yl)pyrazin-2-yl)propanamide] |
| 8 | CCC(=O)Cn1c(=O)c2c(ncn2CC(=O)Nc2cccc(-c3cnc(C(F)(F)F)c(C)c3)n2)n(C)c1=O [Compound 226, 2-(3-methyl-2,6-dioxo-1-(2-oxobutyl)-2,3-dihydro-1H-purin-7(6H)-yl)-N-(5′-methyl-6′-(trifluoromethyl)-[2,3′-bipyridin]-6-yl)acetamide] |
| 7 | C[C@@H](C(=O)Nc1ccnc(-c2cnc(N3CC4C(C3)C4(F)F)nc2)n1)n1cnc2c1c(=O)n(CC#N)c(=O)n2C (stereo partly drawn) [Compound 67, (2S)-2-(1-(cyanomethyl)-3-methyl-2,6-dioxo-2,3-dihydro-1H-purin-7(6H)-yl)-N-(2′-(6,6-difluoro-3-azabicyclo[3.1.0]hexan-3-yl)-[2,5′-bipyrimidin]-4-yl)propanamide] |
| 6 | CCC(=O)Cn1c(=O)c2c(ncn2[C@@H](C)C(=O)Nc2cncc(-c3cnc(N4CC5CC5C4)cn3)n2)n(C)c1=O (stereo partly drawn) [Compound 158, (2S)—N-(5′-(3-azabicyclo[3.1.0]hexan-3-yl)-[2,2′-bipyrazin]-6-yl)-2-(3-methyl-2,6-dioxo-1-(2-oxobutyl)-2,3-dihydro-1H-purin-7(6H)-yl)propanamide] |
| 4 | C[C@@H](C(=O)Nc1csc(-c2cnc(N3CCC[C@@H]3C(F)(F)F)nc2)n1)n1cnc2c1c(=O)n(CC#N)c(=O)n2C [Compound 50] |
| 4 | Cc1nc(Cn2c(=O)c3c(ncn3CC(=O)Nc3csc(-c4cnc(C)c(C(F)(F)F)c4)n3)n(C)c2=O)no1 [Compound 248, 2-(3-methyl-1-((5-methyl-1,2,4-oxadiazol-3-yl)methyl)-2,6-dioxo-2,3-dihydro-1H-purin-7(6H)-yl)-N-(2-(6-methyl-5-(trifluoromethyl)pyridin-3-yl)thiazol-4-yl)acetamide] |
| 4 | CCC(=O)Cn1c(=O)c2c(ncn2[C@@H](C)C(=O)Nc2ccnc(-c3ccc(N4CC5CC5C4)nc3)n2)n(C)c1=O (stereo partly drawn) [Compound 47, (2S)—N-(2-(6-(3-azabicyclo[3.1.0]hexan-3-yl)pyridin-3-yl)pyrimidin-4-yl)-2-(3-methyl-2,6-dioxo-1-(2-oxobutyl)-2,3-dihydro-1H-purin-7(6H)-yl)propanamide] |
| 4 | CC#CCn1c(=O)c2c(ncn2[C@@H](C)C(=O)Nc2csc(-c3ccc(N4CC5CC5C4)nc3)n2)n(C)c1=O (stereo partly drawn) [Compound 263, (2S)—N-(2-(6-(3-azabicyclo[3.1.0]hexan-3-yl)pyridin-3-yl)thiazol-4-yl)-2-(1-(but-2-yn-1-yl)-3-methyl-2,6-dioxo-2,3-dihydro-1H-purin-7(6H)-yl)propanamide] |
| 2 | Cc1cc(Cn2c(=O)c3c(ncn3[C@@H](C)C(=O)Nc3cccc(-c4cnc(C(F)(F)F)c(C)c4)n3)n(C)c2=O)no1 [Compound 129, (S)-2-(3-methyl-1-((5-methylisoxazol-3-yl)methyl)-2,6-dioxo-2,3-dihydro-1H-purin-7(6H)-yl)-N-(5′-methyl-6′-(trifluoromethyl)-[2,3′-bipyridin]-6-yl)propanamide] |
| 2 | C[C@@H](C(=O)Nc1cncc(-c2ccc(N3CC4C(C3)C4(F)F)nc2)n1)n1cnc2c1c(=O)n(CC#N)c(=O)n2C (stereo partly drawn) [Compound 77] |
